Experimental data: ChEMBL document CHEMBL1139625, “Synthesis and binding affinity of novel 3-aminoethyl-1-tetralones, potential atypical antipsychotics” (Bioorg Med Chem Lett, 2005)

How the values were obtained:
[1] = Ratio of inhibitory constant for 5-hydroxytryptamine 2A receptor to that of dopamine receptor D2
[2] = Inhibitory constant towards 5-hydroxytryptamine 2A receptor (5-HT2A)
[3] = Inhibitory constant towards 5-hydroxytryptamine 2C receptor (5-HT2C)
[4] = Inhibitory constant towards dopamine D2 receptor was determined

Ratio [1]	Log Ki [2]	Log Ki [3]	Log Ki [4]	Structure (SMILES)
1.17	-8.23	-6.89	-7.04	COc1ccc2c(c1)C(=O)CC(CCN1CCC(c3noc4cc(F)ccc34)CC1)C2 (centres undefined)
1.01	-6.65	-5.72	-6.55	COc1ccc2c(c1)C(=O)CC(CCN1CCN(c3ccccc3OC)CC1)C2 (centres undefined)
–	-6.33	-5.81	< -5	COc1ccc2c(c1)C(=O)CC(CCN1CCN(c3ccccn3)CC1)C2 (centres undefined)
1.16	-7.34	-5.79	–	COc1ccc2c(c1)CC(CN1CCC(c3noc4cc(F)ccc34)CC1)CC2=O (centres undefined)
–	-5.98	-6.9	< -5	COc1ccc2c(c1)C(=O)CC(CCN1CCC3(CC1)NC(=O)NC3=O)C2 (centres undefined)
–	< -5	< -5	< -5	O=C1CC(CCN2CCC3(CC2)NCNC3=O)Cc2ccccc21 (centres undefined)
–	–	–	-9.22	O=C(CCCN1CCC(O)(c2ccc(Cl)cc2)CC1)c1ccc(F)cc1 [HALOPERIDOL]
0.95	-6.59	-6.35	-6.97	COc1ccccc1N1CCN(CCC2CC(=O)c3ccccc3C2)CC1 (centres undefined)
1.18	-8.02	–	–	COc1cc2c(cc1OC)C(=O)CC(CN1CCC(c3noc4cc(F)ccc34)CC1)C2 (centres undefined)
–	-6.54	< -5	< -5	O=C1CC(CCN2CCN(c3ccccn3)CC2)Cc2ccccc21 (centres undefined)
–	-6.15	-7.05	< -5	O=C1NC(=O)C2(CCN(CCC3CC(=O)c4ccccc4C3)CC2)N1 (centres undefined)
–	< -5	< -5	< -5	COc1ccc2c(c1)C(=O)CC(CCN1CCC3(CC1)NCNC3=O)C2 (centres undefined)
1.38	-8.29	-7.06	-5.98	O=C1CC(CCN2CCC(c3noc4cc(F)ccc34)CC2)Cc2ccccc21 (centres undefined)
1.18	-8.57	-6.89	–	O=C1CC(CN2CCC(c3noc4cc(F)ccc34)CC2)Cc2ccccc21 (centres undefined)

Structure (SMILES)	Ratio [1]	Log Ki [2]	Log Ki [3]	Log Ki [4]
CN1CCN(C2=Nc3cc(Cl)ccc3Nc3ccccc32)CC1 [CLOZAPINE]	–	–	–	-6.65
